Legend:
[1] = test system: sorbitol accumulation in the sciatic nerve of streptozotocinized (i.e., diabetic) rats; assay: sorbitol accumulation in the sciatic nerve of streptozotocinized (diabetic) rats; format: in vivo; conditions: oral; 50 mg/kg body weight; preliminary tests
Text: (§1) The activity of the compounds of the present invention as agents for the control of chronic diabetic complications may be determined by a number of standard biological or pharmacological tests. Suitable tests include (1) measuring their ability to inhibit the enzyme activity of isolated aldose reductase; (2) measuring their ability to reduce or inhibit sorbitol accumulation in the sciatic nerve of acutely streptozotocinized (i.e. diabetic) rats; (3) measuring their ability to reverse already elevated sorbitol levels in the sciatic nerve and lens of chronic streptozotocin-induced diabetic rats; (4) measuring their ability to prevent or inhibit galactitol formation in the lens of acutely galactosemic rats; and (5) measuring their ability to delay cataract formation and reduce the severity of lens opacities in chronic galactosemic rats. Suitable experimental procedures are described in U.S. Pat. No. 3,821,383 and the references cited therein.
(§2) The substrate employed was partially purified aldose reductase enzyme obtained from calf lens. […] Thus, for example, the compounds may be tested for their ability to reduce or inhibit sorbitol accumulation in the sciatic nerve of streptozotocinized (i.e., diabetic) rats by the procedure essentially described in U.S. Pat. No. 3,821,383. The amount of sorbitol accumulation in the sciatic nerves is measured 27 hours after induction of diabetes. […]

[2] = test system: partially purified aldose reductase enzyme obtained from calf lens; assay: inhibition of aldose reductase enzyme activity (procedure of US 3,821,383 / Hayman et al.); format: biochemical; conditions: compound concentration 10^-4 M
Text: as §1, §2

SMILES | activity in reducing or inhibiting sorbitol accumulation in the sciatic nerve [1] | percent inhibition of enzyme activity [2]
O=C1NC(=O)C2(CCCc3ccccc32)O1 (stereo not drawn) [1',2',3',4'-tetrahydro-spiro-[oxazolididine(5,1')naphthalene]-2,4-dione] | no significant activity | 75%
O=C1NC(=O)C2(CCc3ccccc32)O1 (stereo not drawn) [Spiro-[indane(1,5')oxazolidine]-2',4'-dione] |  | 81%

— patent US4226875A, “Novel spiro-oxazolidinediones” (Pfizer Inc., priority 1979, dated 1980)
